# Test results: PubChem BioAssay (NCI)
#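 A five-concentration, 48-hour dose response in 96-well plates underlies each endpoint, interpolated linearly between surrounding concentrations. TGI denotes the concentration required for complete inhibition of growth.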
# Legend:
# Assay in all cases: NCI-60 cell line screen, 48 h
# UACC-62 melanoma = system: UACC-62 melanoma
# MDA-N = system: MDA-N
# UO-31 renal = system: UO-31 renal
# NCI-H522 lung = system: NCI-H522 lung
# PC-3 prostate = system: PC-3 prostate
# OVCAR-8 ovarian = system: OVCAR-8 ovarian
# M14 melanoma = system: M14 melanoma
# NCI-H460 lung = system: NCI-H460 lung
# TK-10 renal = system: TK-10 renal
# MDA-MB-231 breast = system: MDA-MB-231 breast
# HT29 colon = system: HT29 colon
# SW-620 colon = system: SW-620 colon
# HOP-62 NSCLC = system: HOP-62 NSCLC
# A549 NSCLC = system: A549 NSCLC
# HCC-2998 colon = system: HCC-2998 colon
# OVCAR-4 ovarian = system: OVCAR-4 ovarian
# SNB-75 CNS = system: SNB-75 CNS
# KM12 colon = system: KM12 colon
# CCRF-CEM leukemia = system: CCRF-CEM leukemia
# IGROV1 ovarian = system: IGROV1 ovarian
# SF-539 CNS = system: SF-539 CNS
# HCT-15 colon = system: HCT-15 colon
# COLO 205 colon = system: COLO 205 colon
# SK-OV-3 ovarian = system: SK-OV-3 ovarian
# LOX IMVI melanoma = system: LOX IMVI melanoma
# MCF7 breast = system: MCF7 breast
# HCT-116 colon = system: HCT-116 colon
# SR leukemia = system: SR leukemia
# NCI/ADR-RES ovarian = system: NCI/ADR-RES ovarian
# EKVX NSCLC = system: EKVX NSCLC
# SF-268 CNS = system: SF-268 CNS
# MALME-3M melanoma = system: MALME-3M melanoma
# K-562 leukemia = system: K-562 leukemia
# T-47D breast = system: T-47D breast
# CAKI-1 renal = system: CAKI-1 renal
# SF-295 CNS = system: SF-295 CNS
# SK-MEL-28 melanoma = system: SK-MEL-28 melanoma
# SN12C renal = system: SN12C renal
# UACC-257 melanoma = system: UACC-257 melanoma
# NCI-H226 lung = system: NCI-H226 lung
# HS 578T breast = system: HS 578T breast
# RXF 393 renal = system: RXF 393 renal
# BT-549 breast = system: BT-549 breast
# A498 renal = system: A498 renal
# NCI-H23 lung = system: NCI-H23 lung
# DU-145 prostate = system: DU-145 prostate
# U251 CNS = system: U251 CNS
# MOLT-4 leukemia = system: MOLT-4 leukemia
# OVCAR-3 ovarian = system: OVCAR-3 ovarian
# HL-60(TB) leukemia = system: HL-60(TB) leukemia
# MDA-MB-435 = system: MDA-MB-435
# ACHN renal = system: ACHN renal
# 786-0 renal = system: 786-0 renal
# RPMI-8226 leukemia = system: RPMI-8226 leukemia
# OVCAR-5 ovarian = system: OVCAR-5 ovarian
# HOP-92 NSCLC = system: HOP-92 NSCLC
# SK-MEL-5 melanoma = system: SK-MEL-5 melanoma
# SNB-19 CNS = system: SNB-19 CNS
# SK-MEL-2 melanoma = system: SK-MEL-2 melanoma
smiles,measurement,setting,value
Cc1cc(S(=O)(=O)Nc2n[nH]c(-c3ccc(Cl)cc3)n2)c(SSc2cc(Cl)c(C)cc2S(=O)(=O)Nc2n[nH]c(-c3ccc(Cl)cc3)n2)cc1Cl,TGI,UACC-62 melanoma,47 µM
same,TGI,MDA-N,> 100 µM
same,TGI,UO-31 renal,81.9 µM
same,TGI,NCI-H522 lung,83.9 µM
same,TGI,PC-3 prostate,84.6 µM
same,TGI,OVCAR-8 ovarian,> 100 µM
same,TGI,M14 melanoma,> 100 µM
same,TGI,NCI-H460 lung,62.4 µM
same,TGI,TK-10 renal,> 100 µM
same,TGI,MDA-MB-231 breast,> 100 µM
same,TGI,HT29 colon,57.2 µM
same,TGI,SW-620 colon,73.5 µM
same,TGI,HOP-62 NSCLC,> 100 µM
same,TGI,A549 NSCLC,> 100 µM
same,TGI,HCC-2998 colon,40.7 µM
same,TGI,OVCAR-4 ovarian,> 100 µM
same,TGI,SNB-75 CNS,76.1 µM
same,TGI,KM12 colon,77.4 µM
same,TGI,CCRF-CEM leukemia,60.6 µM
same,TGI,IGROV1 ovarian,69.2 µM
same,TGI,SF-539 CNS,> 100 µM
same,TGI,HCT-15 colon,69.1 µM
same,TGI,COLO 205 colon,67.4 µM
same,TGI,SK-OV-3 ovarian,> 100 µM
same,TGI,LOX IMVI melanoma,64.3 µM
same,TGI,MCF7 breast,> 100 µM
same,TGI,HCT-116 colon,> 100 µM
same,TGI,SR leukemia,55.3 µM
same,TGI,NCI/ADR-RES ovarian,> 100 µM
same,TGI,EKVX NSCLC,89.6 µM
same,TGI,SF-268 CNS,> 100 µM
same,TGI,MALME-3M melanoma,> 100 µM
same,TGI,K-562 leukemia,62.3 µM
same,TGI,T-47D breast,42.2 µM
same,TGI,CAKI-1 renal,> 100 µM
same,TGI,SF-295 CNS,> 100 µM
same,TGI,SK-MEL-28 melanoma,96.4 µM
same,TGI,SN12C renal,> 100 µM
same,TGI,UACC-257 melanoma,> 100 µM
same,TGI,NCI-H226 lung,73.3 µM
same,TGI,HS 578T breast,> 100 µM
same,TGI,RXF 393 renal,63.7 µM
same,TGI,BT-549 breast,> 100 µM
same,TGI,A498 renal,59.1 µM
same,TGI,NCI-H23 lung,> 100 µM
same,TGI,DU-145 prostate,> 100 µM
same,TGI,U251 CNS,78.6 µM
same,TGI,MOLT-4 leukemia,54.2 µM
same,TGI,OVCAR-3 ovarian,85.1 µM
same,TGI,HL-60(TB) leukemia,48.5 µM
same,TGI,MDA-MB-435,> 100 µM
same,TGI,ACHN renal,98.5 µM
same,TGI,786-0 renal,> 100 µM
same,TGI,RPMI-8226 leukemia,> 100 µM
same,TGI,OVCAR-5 ovarian,86.9 µM
same,TGI,HOP-92 NSCLC,76.8 µM
same,TGI,SK-MEL-5 melanoma,86.8 µM
C=C(Cl)C(Cl)(CBr)CCC(Br)C(C)(C)Br (stereo not given),TGI,UACC-62 melanoma,28.5 µM
same,TGI,MDA-N,21.2 µM
same,TGI,UO-31 renal,20.1 µM
same,TGI,NCI-H522 lung,19.3 µM
same,TGI,PC-3 prostate,5.68 µM
same,TGI,OVCAR-8 ovarian,13.9 µM
same,TGI,M14 melanoma,33.6 µM
same,TGI,NCI-H460 lung,3.71 µM
same,TGI,TK-10 renal,3.12 µM
same,TGI,MDA-MB-231 breast,27.6 µM
same,TGI,HT29 colon,2.41 µM
same,TGI,SW-620 colon,8.32 µM
same,TGI,HOP-62 NSCLC,1.83 µM
same,TGI,A549 NSCLC,16.3 µM
same,TGI,HCC-2998 colon,19.9 µM
same,TGI,OVCAR-4 ovarian,36 µM
same,TGI,SNB-75 CNS,5.45 µM
same,TGI,KM12 colon,3.45 µM
same,TGI,CCRF-CEM leukemia,23.5 µM
same,TGI,IGROV1 ovarian,37.3 µM
same,TGI,SF-539 CNS,4.01 µM
same,TGI,HCT-15 colon,9.35 µM
same,TGI,COLO 205 colon,10.8 µM
same,TGI,SK-OV-3 ovarian,26.5 µM
same,TGI,LOX IMVI melanoma,33.3 µM
same,TGI,MCF7 breast,3.34 µM
same,TGI,HCT-116 colon,4.04 µM
same,TGI,SR leukemia,32.9 µM
same,TGI,NCI/ADR-RES ovarian,> 55.4 µM
same,TGI,EKVX NSCLC,15.6 µM
same,TGI,SF-268 CNS,10.7 µM
same,TGI,MALME-3M melanoma,29.6 µM
same,TGI,K-562 leukemia,16.3 µM
same,TGI,T-47D breast,7.42 µM
same,TGI,CAKI-1 renal,5.3 µM
same,TGI,SF-295 CNS,3.78 µM
same,TGI,SK-MEL-28 melanoma,10.1 µM
same,TGI,SNB-19 CNS,23.1 µM
same,TGI,SN12C renal,19.7 µM
same,TGI,UACC-257 melanoma,4.4 µM
same,TGI,NCI-H226 lung,37.2 µM
same,TGI,HS 578T breast,12.1 µM
same,TGI,RXF 393 renal,4.03 µM
same,TGI,BT-549 breast,20.8 µM
same,TGI,A498 renal,23.3 µM
same,TGI,NCI-H23 lung,31.5 µM
same,TGI,DU-145 prostate,11.9 µM
same,TGI,U251 CNS,3.37 µM
same,TGI,MOLT-4 leukemia,25.3 µM
same,TGI,OVCAR-3 ovarian,6.65 µM
same,TGI,HL-60(TB) leukemia,6.02 µM
same,TGI,MDA-MB-435,24.5 µM
same,TGI,ACHN renal,5.53 µM
same,TGI,786-0 renal,2.59 µM
same,TGI,RPMI-8226 leukemia,2.01 µM
same,TGI,OVCAR-5 ovarian,25.4 µM
same,TGI,HOP-92 NSCLC,4.38 µM
same,TGI,SK-MEL-5 melanoma,30.2 µM
COc1ccc(C2SC(N)=Nc3c2c(C)nn3C(=O)c2ccccc2O)cc1OC (stereo not given),TGI,UACC-62 melanoma,7.93 µM
same,TGI,MDA-N,> 10 µM
same,TGI,SK-MEL-2 melanoma,> 10 µM
same,TGI,UO-31 renal,> 10 µM
same,TGI,PC-3 prostate,> 10 µM
same,TGI,M14 melanoma,> 10 µM
same,TGI,NCI-H460 lung,> 10 µM
same,TGI,TK-10 renal,> 10 µM
same,TGI,MDA-MB-231 breast,> 10 µM
same,TGI,HT29 colon,> 10 µM
same,TGI,SW-620 colon,> 10 µM
same,TGI,HOP-62 NSCLC,> 10 µM
same,TGI,A549 NSCLC,> 10 µM
same,TGI,OVCAR-4 ovarian,> 10 µM
same,TGI,SNB-75 CNS,9.32 µM
same,TGI,KM12 colon,> 10 µM
same,TGI,CCRF-CEM leukemia,> 10 µM
same,TGI,IGROV1 ovarian,> 10 µM
same,TGI,SF-539 CNS,> 10 µM
same,TGI,HCT-15 colon,> 10 µM
same,TGI,COLO 205 colon,> 10 µM
same,TGI,SK-OV-3 ovarian,> 10 µM
same,TGI,LOX IMVI melanoma,> 10 µM
same,TGI,MCF7 breast,> 10 µM
same,TGI,HCT-116 colon,7.47 µM
same,TGI,SR leukemia,> 10 µM
same,TGI,NCI/ADR-RES ovarian,> 10 µM
same,TGI,EKVX NSCLC,> 10 µM
same,TGI,SF-268 CNS,> 10 µM
same,TGI,MALME-3M melanoma,> 10 µM
same,TGI,K-562 leukemia,> 10 µM
same,TGI,T-47D breast,> 10 µM
same,TGI,CAKI-1 renal,> 10 µM
same,TGI,SF-295 CNS,> 10 µM
same,TGI,SK-MEL-28 melanoma,> 10 µM
same,TGI,SNB-19 CNS,> 10 µM
same,TGI,SN12C renal,> 10 µM
same,TGI,UACC-257 melanoma,> 10 µM
same,TGI,NCI-H226 lung,> 10 µM
same,TGI,HS 578T breast,5.11 µM
same,TGI,RXF 393 renal,> 10 µM
same,TGI,BT-549 breast,> 10 µM
same,TGI,A498 renal,> 10 µM
same,TGI,NCI-H23 lung,> 10 µM
same,TGI,DU-145 prostate,> 10 µM
same,TGI,U251 CNS,> 10 µM
same,TGI,MOLT-4 leukemia,> 10 µM
same,TGI,OVCAR-3 ovarian,> 10 µM
same,TGI,HL-60(TB) leukemia,> 10 µM
same,TGI,MDA-MB-435,> 10 µM
same,TGI,ACHN renal,> 10 µM
same,TGI,786-0 renal,> 10 µM
same,TGI,RPMI-8226 leukemia,> 10 µM
same,TGI,OVCAR-5 ovarian,> 10 µM
same,TGI,HOP-92 NSCLC,4.36 µM
